# Reference: the supplement of paper PMC10307832
# Key:
# Assay in all cases: relative viability (nuclei count vs DMSO), 5 days (fraction); higher = more cells survive
# NCI-H358 = test system: NCI-H358
# Procedure, shortened: (§1)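 Each reported value is a median over duplicate plates. It expresses relative viability: treated-well nuclei count divided by vehicle-well nuclei count. Lung cancer cell lines in 1536-well plates were dosed by pin tool a day after seeding, alone with one drug or with a fixed anchor-drug dose plus five library-drug doses (not always all listed) in √10 steps, and nuclei were counted after 5 days.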
# HARA = test system: HARA
# Procedure, shortened: as §1
# UMC-11 = test system: UMC-11
# Procedure, shortened: as §1
# NCI-H838 = test system: NCI-H838
# Procedure, shortened: as §1
# COR-L23 = test system: COR-L23
# Procedure, shortened: as §1
# NCI-H647 = test system: NCI-H647
# Procedure, shortened: as §1
# SK-MES-1 = test system: SK-MES-1
# Procedure, shortened: as §1
# NCI-H1993 = test system: NCI-H1993
# Procedure, shortened: as §1
# COR-L 105 = test system: COR-L 105
# Procedure, shortened: as §1
# NCI-H2009 = test system: NCI-H2009
# Procedure, shortened: as §1
# NCI-H2347 = test system: NCI-H2347
# Procedure, shortened: as §1
# EKVX = test system: EKVX
# Procedure, shortened: as §1
# NCI-H2228 = test system: NCI-H2228
# Procedure, shortened: as §1
# NCI-H322M = test system: NCI-H322M
# Procedure, shortened: as §1
# PC-14 = test system: PC-14
# Procedure, shortened: as §1
# HOP-62 = test system: HOP-62
# Procedure, shortened: as §1
# NCI-H1355 = test system: NCI-H1355
# Procedure, shortened: as §1
# NCI-H2170 = test system: NCI-H2170
# Procedure, shortened: as §1
# NCI-H1755 = test system: NCI-H1755
# Procedure, shortened: as §1
# NCI-H1734 = test system: NCI-H1734
# Procedure, shortened: as §1
compound,measurement,setting,value
C[C@@H]1CN(CC(=O)Nc2ccc3c(c2)Cc2cccc(-c4cc(=O)cc(N5CCOCC5)o4)c2S3)C[C@H](C)O1 + C[C@@H](Oc1cc(-c2cnn(C3CCNCC3)c2)cnc1N)c1c(Cl)ccc(F)c1Cl [Crizotinib] (partner 1 µM),relative viability,NCI-H358; first compound 0.04 µM,0.456
same,relative viability,NCI-H358; first compound 0.1265 µM,0.465
same,relative viability,NCI-H358; first compound 0.4 µM,0.718
same,relative viability,NCI-H358; first compound 4 µM,0.365
same,relative viability,HARA; first compound 0.04 µM,0.697
same,relative viability,HARA; first compound 0.1265 µM,0.96
same,relative viability,HARA; first compound 0.4 µM,1.07
same,relative viability,HARA; first compound 4 µM,0.988
same,relative viability,UMC-11; first compound 0.04 µM,0.747
same,relative viability,UMC-11; first compound 0.1265 µM,0.644
same,relative viability,UMC-11; first compound 0.4 µM,0.613
same,relative viability,UMC-11; first compound 4 µM,0.385
same,relative viability,NCI-H838; first compound 0.04 µM,0.886
same,relative viability,NCI-H838; first compound 0.1265 µM,0.77
same,relative viability,NCI-H838; first compound 0.4 µM,0.755
same,relative viability,NCI-H838; first compound 4 µM,0.616
same,relative viability,COR-L23; first compound 0.04 µM,0.678
same,relative viability,COR-L23; first compound 0.1265 µM,0.625
same,relative viability,COR-L23; first compound 0.4 µM,0.693
same,relative viability,COR-L23; first compound 4 µM,0.516
same,relative viability,NCI-H647; first compound 0.04 µM,1.04
same,relative viability,NCI-H647; first compound 0.1265 µM,1.09
same,relative viability,NCI-H647; first compound 0.4 µM,1.09
same,relative viability,NCI-H647; first compound 4 µM,0.592
same,relative viability,SK-MES-1; first compound 0.04 µM,1.08
same,relative viability,SK-MES-1; first compound 0.1265 µM,0.991
same,relative viability,SK-MES-1; first compound 0.4 µM,0.917
same,relative viability,SK-MES-1; first compound 4 µM,0.774
same,relative viability,NCI-H1993; first compound 0.04 µM,0.876
same,relative viability,NCI-H1993; first compound 0.1265 µM,0.846
same,relative viability,NCI-H1993; first compound 0.4 µM,0.661
same,relative viability,NCI-H1993; first compound 4 µM,0.85
same,relative viability,COR-L 105; first compound 0.04 µM,0.766
same,relative viability,COR-L 105; first compound 0.1265 µM,0.862
same,relative viability,COR-L 105; first compound 0.4 µM,0.881
same,relative viability,COR-L 105; first compound 4 µM,0.435
same,relative viability,NCI-H2009; first compound 0.04 µM,1.05
same,relative viability,NCI-H2009; first compound 0.1265 µM,1.03
same,relative viability,NCI-H2009; first compound 0.4 µM,1.09
same,relative viability,NCI-H2009; first compound 4 µM,0.769
same,relative viability,NCI-H2347; first compound 0.04 µM,0.784
same,relative viability,NCI-H2347; first compound 0.1265 µM,0.754
same,relative viability,NCI-H2347; first compound 0.4 µM,0.735
same,relative viability,NCI-H2347; first compound 4 µM,0.578
same,relative viability,EKVX; first compound 0.04 µM,0.924
same,relative viability,EKVX; first compound 0.1265 µM,0.947
same,relative viability,EKVX; first compound 0.4 µM,1.13
same,relative viability,EKVX; first compound 4 µM,0.876
same,relative viability,NCI-H2228; first compound 0.04 µM,0.568
same,relative viability,NCI-H2228; first compound 0.1265 µM,0.394
same,relative viability,NCI-H2228; first compound 0.4 µM,0.283
same,relative viability,NCI-H2228; first compound 4 µM,0.341
same,relative viability,NCI-H322M; first compound 0.04 µM,0.599
same,relative viability,NCI-H322M; first compound 0.1265 µM,0.863
same,relative viability,NCI-H322M; first compound 0.4 µM,1.08
same,relative viability,NCI-H322M; first compound 4 µM,0.959
same,relative viability,PC-14; first compound 0.04 µM,0.976
same,relative viability,PC-14; first compound 0.1265 µM,0.982
same,relative viability,PC-14; first compound 0.4 µM,0.859
same,relative viability,PC-14; first compound 4 µM,0.706
same,relative viability,HOP-62; first compound 0.04 µM,0.876
same,relative viability,HOP-62; first compound 0.1265 µM,1
same,relative viability,HOP-62; first compound 0.4 µM,0.884
same,relative viability,HOP-62; first compound 4 µM,0.941
same,relative viability,NCI-H1355; first compound 0.04 µM,0.955
same,relative viability,NCI-H1355; first compound 0.1265 µM,1.07
same,relative viability,NCI-H1355; first compound 0.4 µM,1.03
same,relative viability,NCI-H1355; first compound 4 µM,1.1
same,relative viability,NCI-H2170; first compound 0.1265 µM,1.2
same,relative viability,NCI-H2170; first compound 0.4 µM,1.21
same,relative viability,NCI-H2170; first compound 4 µM,1.1
same,relative viability,NCI-H1755; first compound 0.04 µM,0.92
same,relative viability,NCI-H1755; first compound 0.1265 µM,0.86
same,relative viability,NCI-H1755; first compound 0.4 µM,0.816
same,relative viability,NCI-H1755; first compound 4 µM,0.792
same,relative viability,NCI-H1734; first compound 0.04 µM,0.762
same,relative viability,NCI-H1734; first compound 0.1265 µM,0.651
same,relative viability,NCI-H1734; first compound 0.4 µM,0.627
same,relative viability,NCI-H1734; first compound 4 µM,0.663
CC(C)Oc1cc(Nc2nc(N[C@@H](C)c3ccc(F)cn3)ncc2Cl)n[nH]1 [AZ23] + CC(C)C[C@H](NC(=O)[C@H](Cc1ccccc1)NC(=O)c1cnccn1)B(O)O [Bortezomib] (partner 0.002 µM),relative viability,HARA; first compound 0.01 µM,1.04
same,relative viability,HARA; first compound 0.03162 µM,1.1
same,relative viability,HARA; first compound 0.3162 µM,1.27
same,relative viability,UMC-11; first compound 0.01 µM,0.766
same,relative viability,UMC-11; first compound 0.03162 µM,0.86
same,relative viability,UMC-11; first compound 0.3162 µM,0.808
same,relative viability,NCI-H838; first compound 0.01 µM,0.772
same,relative viability,NCI-H838; first compound 0.03162 µM,0.702
same,relative viability,NCI-H838; first compound 0.3162 µM,0.757
same,relative viability,COR-L23; first compound 0.01 µM,0.921
same,relative viability,COR-L23; first compound 0.03162 µM,1.27
same,relative viability,COR-L23; first compound 0.3162 µM,1.04
same,relative viability,NCI-H647; first compound 0.01 µM,1.41
same,relative viability,NCI-H647; first compound 0.03162 µM,1.16
same,relative viability,NCI-H647; first compound 0.3162 µM,1.12
same,relative viability,NCI-H1993; first compound 0.01 µM,0.911
same,relative viability,NCI-H1993; first compound 0.3162 µM,1.16
same,relative viability,COR-L 105; first compound 0.01 µM,0.733
same,relative viability,COR-L 105; first compound 0.03162 µM,1.04
same,relative viability,COR-L 105; first compound 0.3162 µM,0.757
same,relative viability,NCI-H2009; first compound 0.01 µM,1.1
same,relative viability,NCI-H2009; first compound 0.03162 µM,1.06
same,relative viability,NCI-H2009; first compound 0.3162 µM,1.21
same,relative viability,NCI-H2347; first compound 0.01 µM,0.927
same,relative viability,NCI-H2347; first compound 0.03162 µM,1.04
same,relative viability,NCI-H2347; first compound 0.3162 µM,0.979
same,relative viability,EKVX; first compound 0.01 µM,1.52
same,relative viability,EKVX; first compound 0.03162 µM,1.26
same,relative viability,EKVX; first compound 0.3162 µM,1.01
same,relative viability,NCI-H2228; first compound 0.01 µM,1.49
same,relative viability,NCI-H2228; first compound 0.03162 µM,1.19
same,relative viability,NCI-H2228; first compound 0.3162 µM,0.84
same,relative viability,NCI-H322M; first compound 0.01 µM,1.2
same,relative viability,NCI-H322M; first compound 0.03162 µM,1.32
same,relative viability,NCI-H322M; first compound 0.3162 µM,1.19
same,relative viability,PC-14; first compound 0.01 µM,0.774
same,relative viability,PC-14; first compound 0.03162 µM,1.04
same,relative viability,PC-14; first compound 0.3162 µM,0.917
same,relative viability,HOP-62; first compound 0.01 µM,0.821
same,relative viability,HOP-62; first compound 0.03162 µM,0.517
same,relative viability,HOP-62; first compound 0.3162 µM,0.867
same,relative viability,NCI-H1355; first compound 0.01 µM,1.33
same,relative viability,NCI-H1355; first compound 0.03162 µM,1.17
same,relative viability,NCI-H1355; first compound 0.3162 µM,1.26
same,relative viability,NCI-H1755; first compound 0.01 µM,1.16
same,relative viability,NCI-H1755; first compound 0.03162 µM,1.07
same,relative viability,NCI-H1755; first compound 0.3162 µM,1.03
same,relative viability,NCI-H1734; first compound 0.01 µM,1.02
same,relative viability,NCI-H1734; first compound 0.03162 µM,1.37
same,relative viability,NCI-H1734; first compound 0.3162 µM,1.01
